Peptide text beside a SMILES is read from it. * marks the point of attachment. Dansyl = CN(C)c1cccc2c(S(=O)(=O)*)cccc12
System: receptor labeled by the radioiodinated analogue of 1 (4, [125I]-YLFQPQRF-NH2); neuropeptide FF receptor
Test: Competitive radioligand binding against 4 ([125I]Y8F-amide)
Conditions: mixture-based positional scanning; difference from averaged radioligand displacement of whole library (0); about 80 a.u. = 10-fold change in Ki

Compound	Relative Binding Index (RBI) [a.u.]
C[C@@H](O)[C@H](NC(=O)CNS(=O)(=O)c1cccc2c(N(C)C)cccc12)C(=O)N[C@@H](CCCNC(=N)N)C(N)=O [Dansyl-GTR-amide] (Dansyl-Gly-Thr-Arg-NH2)	31
CC(C)[C@H](NC(=O)CNS(=O)(=O)c1cccc2c(N(C)C)cccc12)C(=O)N[C@@H](CCCNC(=N)N)C(N)=O [Dansyl-GVR-amide] (Dansyl-Gly-Val-Arg-NH2)	20
CN(C)c1cccc2c(S(=O)(=O)NCC(=O)N[C@@H](Cc3c[nH]c4ccccc34)C(=O)N[C@@H](CCCNC(=N)N)C(N)=O)cccc12 [Dansyl-GWR-amide] (Dansyl-Gly-Trp-Arg-NH2)	34
CN(C)c1cccc2c(S(=O)(=O)NCC(=O)N[C@@H](Cc3ccc(O)cc3)C(=O)N[C@@H](CCCNC(=N)N)C(N)=O)cccc12 [Dansyl-GYR-amide] (Dansyl-Gly-Tyr-Arg-NH2)	24
C[C@H](NC(=O)[C@H](Cc1c[nH]cn1)NS(=O)(=O)c1cccc2c(N(C)C)cccc12)C(=O)N[C@@H](CCCNC(=N)N)C(N)=O [Dansyl-HAR-amide] (Dansyl-His-Ala-Arg-NH2)	−32
CN(C)c1cccc2c(S(=O)(=O)N[C@@H](Cc3c[nH]cn3)C(=O)N[C@@H](CC(=O)O)C(=O)N[C@@H](CCCNC(=N)N)C(N)=O)cccc12 [Dansyl-HDR-amide] (Dansyl-His-Asp-Arg-NH2)	−1
CN(C)c1cccc2c(S(=O)(=O)N[C@@H](Cc3c[nH]cn3)C(=O)N[C@@H](CCC(=O)O)C(=O)N[C@@H](CCCNC(=N)N)C(N)=O)cccc12 [Dansyl-HER-amide] (Dansyl-His-Glu-Arg-NH2)	17
CN(C)c1cccc2c(S(=O)(=O)N[C@@H](Cc3cnc[nH]3)C(=O)N[C@@H](Cc3ccccc3)C(=O)N[C@@H](CCCNC(=N)N)C(N)=O)cccc12 [Dansyl-HFR-amide] (Dansyl-His-Phe-Arg-NH2)	15
CN(C)c1cccc2c(S(=O)(=O)N[C@@H](Cc3c[nH]cn3)C(=O)NCC(=O)N[C@@H](CCCNC(=N)N)C(N)=O)cccc12 [Dansyl-HGR-amide] (Dansyl-His-Gly-Arg-NH2)	22
CN(C)c1cccc2c(S(=O)(=O)N[C@@H](Cc3c[nH]cn3)C(=O)N[C@@H](Cc3c[nH]cn3)C(=O)N[C@@H](CCCNC(=N)N)C(N)=O)cccc12 [Dansyl-HHR-amide] (Dansyl-His-His-Arg-NH2)	11
CC[C@H](C)[C@H](NC(=O)[C@H](Cc1c[nH]cn1)NS(=O)(=O)c1cccc2c(N(C)C)cccc12)C(=O)N[C@@H](CCCNC(=N)N)C(N)=O [Dansyl-HIR-amide] (Dansyl-His-Ile-Arg-NH2)	23
CN(C)c1cccc2c(S(=O)(=O)N[C@@H](Cc3cnc[nH]3)C(=O)N[C@@H](CCCCN)C(=O)N[C@@H](CCCNC(=N)N)C(N)=O)cccc12 [Dansyl-HKR-amide] (Dansyl-His-Lys-Arg-NH2)	14
CC(C)C[C@H](NC(=O)[C@H](Cc1cnc[nH]1)NS(=O)(=O)c1cccc2c(N(C)C)cccc12)C(=O)N[C@@H](CCCNC(=N)N)C(N)=O [Dansyl-HLR-amide] (Dansyl-His-Leu-Arg-NH2)	8
CSCC[C@H](NC(=O)[C@H](Cc1cnc[nH]1)NS(=O)(=O)c1cccc2c(N(C)C)cccc12)C(=O)N[C@@H](CCCNC(=N)N)C(N)=O [Dansyl-HMR-amide] (Dansyl-His-Met-Arg-NH2)	17
CN(C)c1cccc2c(S(=O)(=O)N[C@@H](Cc3c[nH]cn3)C(=O)N[C@@H](CC(N)=O)C(=O)N[C@@H](CCCNC(=N)N)C(N)=O)cccc12 [Dansyl-HNR-amide] (Dansyl-His-Asn-Arg-NH2)	18
CN(C)c1cccc2c(S(=O)(=O)N[C@@H](Cc3cnc[nH]3)C(=O)N3CCC[C@H]3C(=O)N[C@@H](CCCNC(=N)N)C(N)=O)cccc12 [Dansyl-HPR-amide] (Dansyl-His-Pro-Arg-NH2)	20
CN(C)c1cccc2c(S(=O)(=O)N[C@@H](Cc3cnc[nH]3)C(=O)N[C@@H](CCC(N)=O)C(=O)N[C@@H](CCCNC(=N)N)C(N)=O)cccc12 [Dansyl-HQR-amide] (Dansyl-His-Gln-Arg-NH2)	30
CN(C)c1cccc2c(S(=O)(=O)N[C@@H](Cc3cnc[nH]3)C(=O)N[C@@H](CCCNC(=N)N)C(=O)N[C@@H](CCCNC(=N)N)C(N)=O)cccc12 [Dansyl-HRR-amide] (Dansyl-His-Arg-Arg-NH2)	15
CN(C)c1cccc2c(S(=O)(=O)N[C@@H](Cc3c[nH]cn3)C(=O)N[C@@H](CO)C(=O)N[C@@H](CCCNC(=N)N)C(N)=O)cccc12 [Dansyl-HSR-amide] (Dansyl-His-Ser-Arg-NH2)	37

Compound	Relative Binding Index (RBI) [a.u.]
C[C@@H](O)[C@H](NC(=O)[C@H](Cc1cnc[nH]1)NS(=O)(=O)c1cccc2c(N(C)C)cccc12)C(=O)N[C@@H](CCCNC(=N)N)C(N)=O [Dansyl-HTR-amide] (Dansyl-His-Thr-Arg-NH2)	22
CC(C)[C@H](NC(=O)[C@H](Cc1c[nH]cn1)NS(=O)(=O)c1cccc2c(N(C)C)cccc12)C(=O)N[C@@H](CCCNC(=N)N)C(N)=O [Dansyl-HVR-amide] (Dansyl-His-Val-Arg-NH2)	12
CN(C)c1cccc2c(S(=O)(=O)N[C@@H](Cc3cnc[nH]3)C(=O)N[C@@H](Cc3c[nH]c4ccccc34)C(=O)N[C@@H](CCCNC(=N)N)C(N)=O)cccc12 [Dansyl-HWR-amide] (Dansyl-His-Trp-Arg-NH2)	26
CN(C)c1cccc2c(S(=O)(=O)N[C@@H](Cc3c[nH]cn3)C(=O)N[C@@H](Cc3ccc(O)cc3)C(=O)N[C@@H](CCCNC(=N)N)C(N)=O)cccc12 [Dansyl-HYR-amide] (Dansyl-His-Tyr-Arg-NH2)	16
CC[C@H](C)[C@H](NS(=O)(=O)c1cccc2c(N(C)C)cccc12)C(=O)N[C@@H](C)C(=O)N[C@@H](CCCNC(=N)N)C(N)=O [Dansyl-IAR-amide] (Dansyl-Ile-Ala-Arg-NH2)	−60
CC[C@H](C)[C@H](NS(=O)(=O)c1cccc2c(N(C)C)cccc12)C(=O)N[C@@H](CC(=O)O)C(=O)N[C@@H](CCCNC(=N)N)C(N)=O [Dansyl-IDR-amide] (Dansyl-Ile-Asp-Arg-NH2)	−29
CC[C@H](C)[C@H](NS(=O)(=O)c1cccc2c(N(C)C)cccc12)C(=O)N[C@@H](CCC(=O)O)C(=O)N[C@@H](CCCNC(=N)N)C(N)=O [Dansyl-IER-amide] (Dansyl-Ile-Glu-Arg-NH2)	−11
CC[C@H](C)[C@H](NS(=O)(=O)c1cccc2c(N(C)C)cccc12)C(=O)N[C@@H](Cc1ccccc1)C(=O)N[C@@H](CCCNC(=N)N)C(N)=O [Dansyl-IFR-amide] (Dansyl-Ile-Phe-Arg-NH2)	−12
CC[C@H](C)[C@H](NS(=O)(=O)c1cccc2c(N(C)C)cccc12)C(=O)NCC(=O)N[C@@H](CCCNC(=N)N)C(N)=O [Dansyl-IGR-amide] (Dansyl-Ile-Gly-Arg-NH2)	−6
CC[C@H](C)[C@H](NS(=O)(=O)c1cccc2c(N(C)C)cccc12)C(=O)N[C@@H](Cc1c[nH]cn1)C(=O)N[C@@H](CCCNC(=N)N)C(N)=O [Dansyl-IHR-amide] (Dansyl-Ile-His-Arg-NH2)	−17
CC[C@H](C)[C@H](NC(=O)[C@@H](NS(=O)(=O)c1cccc2c(N(C)C)cccc12)[C@@H](C)CC)C(=O)N[C@@H](CCCNC(=N)N)C(N)=O [Dansyl-IIR-amide] (Dansyl-Ile-Ile-Arg-NH2)	−5
CCC(C)C(NS(=O)(=O)c1cccc2c(N(C)C)cccc12)C(=O)NC(CCCCN)C(=O)NC(CCCNC(=N)N)C(N)=O (stereo not drawn) [Dansyl-IKR-amide] (Dansyl-Ile-Lys-Arg-NH2; configuration not given here)	−13
CC[C@H](C)[C@H](NS(=O)(=O)c1cccc2c(N(C)C)cccc12)C(=O)N[C@@H](CC(C)C)C(=O)N[C@@H](CCCNC(=N)N)C(N)=O [Dansyl-ILR-amide] (Dansyl-Ile-Leu-Arg-NH2)	−19
CC[C@H](C)[C@H](NS(=O)(=O)c1cccc2c(N(C)C)cccc12)C(=O)N[C@@H](CCSC)C(=O)N[C@@H](CCCNC(=N)N)C(N)=O [Dansyl-IMR-amide] (Dansyl-Ile-Met-Arg-NH2)	−11
CC[C@H](C)[C@H](NS(=O)(=O)c1cccc2c(N(C)C)cccc12)C(=O)N[C@@H](CC(N)=O)C(=O)N[C@@H](CCCNC(=N)N)C(N)=O [Dansyl-INR-amide] (Dansyl-Ile-Asn-Arg-NH2)	−10
CC[C@H](C)[C@H](NS(=O)(=O)c1cccc2c(N(C)C)cccc12)C(=O)N1CCC[C@H]1C(=O)N[C@@H](CCCNC(=N)N)C(N)=O [Dansyl-IPR-amide] (Dansyl-Ile-Pro-Arg-NH2)	−8
CC[C@H](C)[C@H](NS(=O)(=O)c1cccc2c(N(C)C)cccc12)C(=O)N[C@@H](CCC(N)=O)C(=O)N[C@@H](CCCNC(=N)N)C(N)=O [Dansyl-IQR-amide] (Dansyl-Ile-Gln-Arg-NH2)	3
CC[C@H](C)[C@H](NS(=O)(=O)c1cccc2c(N(C)C)cccc12)C(=O)N[C@@H](CCCNC(=N)N)C(=O)N[C@@H](CCCNC(=N)N)C(N)=O [Dansyl-IRR-amide] (Dansyl-Ile-Arg-Arg-NH2)	−12
CC[C@H](C)[C@H](NS(=O)(=O)c1cccc2c(N(C)C)cccc12)C(=O)N[C@@H](CO)C(=O)N[C@@H](CCCNC(=N)N)C(N)=O [Dansyl-ISR-amide] (Dansyl-Ile-Ser-Arg-NH2)	10

Source: US6960574B2, “Antagonists of RF-amide neuropeptides” (University of Florida, priority 2002, dated 2005)
